This note sets out measurements from patent US12673946B2, “Pyrimidin-4(3H)-one derivatives as TRPV4 antagonists” (RaQualia Pharma Inc., priority 2020, dated 2026).

The experiment concerns the target T1, human TRPV4 (Homo sapiens, UniProt Q9HBA0).
T1 construct: host or cells: tetracycline-inducible Flp-In T-REx 293 cells
The experiment in a line: Hypotonicity-induced Ca2+ influx (Fluo-4, FDSS). It is filed as cell-based. The essentials: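 Flp-In T-REx 293 cells with tetracycline-induced human TRPV4, loaded with Fluo-4 for 60 min at 25 °C. Compound added 5 min before hypotonic mannitol/CaCl2 solution. Ca2+ signal recorded for 4.5 min on FDSS.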

Where [1] appears, read: Flp-In T-REx 293 cells expressing human TRPV4, examples listed under heading 'Human IC50<50 nM'.
[2] abbreviates: Flp-In T-REx 293 cells stably expressing human TRPV4, compounds listed by potency bin (<10 nM Tables 96-1/96-2, <3 nM Table 97).

A value given as a limit tells only on which side of the number the result lay.

T1 sequence (Q9HBA0 whole entry): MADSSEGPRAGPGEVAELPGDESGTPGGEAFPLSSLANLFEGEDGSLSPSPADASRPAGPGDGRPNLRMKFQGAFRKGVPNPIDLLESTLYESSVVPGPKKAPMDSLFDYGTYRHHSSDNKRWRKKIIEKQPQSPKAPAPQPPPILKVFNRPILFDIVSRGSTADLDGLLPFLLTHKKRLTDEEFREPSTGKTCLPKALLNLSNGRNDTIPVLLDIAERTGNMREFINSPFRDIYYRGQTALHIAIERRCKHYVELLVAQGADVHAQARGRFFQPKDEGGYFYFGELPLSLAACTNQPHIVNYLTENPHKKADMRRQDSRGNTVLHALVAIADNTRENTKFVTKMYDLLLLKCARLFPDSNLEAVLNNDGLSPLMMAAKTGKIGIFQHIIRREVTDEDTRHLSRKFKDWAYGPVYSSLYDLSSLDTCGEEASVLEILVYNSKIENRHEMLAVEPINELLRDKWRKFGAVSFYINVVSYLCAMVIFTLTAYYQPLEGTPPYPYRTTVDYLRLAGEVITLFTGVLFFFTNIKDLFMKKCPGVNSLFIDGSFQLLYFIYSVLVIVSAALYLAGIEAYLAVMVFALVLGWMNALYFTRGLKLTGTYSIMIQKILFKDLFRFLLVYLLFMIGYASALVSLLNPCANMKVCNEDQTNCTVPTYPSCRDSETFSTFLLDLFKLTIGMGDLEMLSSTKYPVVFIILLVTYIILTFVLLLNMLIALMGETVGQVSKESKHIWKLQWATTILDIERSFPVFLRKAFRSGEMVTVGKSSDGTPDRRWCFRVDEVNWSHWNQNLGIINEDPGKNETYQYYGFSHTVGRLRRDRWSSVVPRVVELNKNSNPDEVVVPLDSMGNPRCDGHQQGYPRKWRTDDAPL

In general, IC50 refers to the concentration needed to halve the response being measured. Lower therefore signals greater potency in that assay. For `O=C([C@H](O)c1cccc(C(F)(F)F)c1)N1CCCc2nc(C3(c4cccc(-c5ccc(CN6CCc7c(Cl)cccc7C6)cc5)c4)CC3)[nH]c(=O)c2C1` [42-96], the IC50 was below 50 nM under setting [1] and below 10 nM under setting [2].

Consider `O=C([C@H](O)c1cccc(C(F)(F)F)c1)N1CCCc2nc(C3(c4cncc(-c5ccccc5)c4)CC3)[nH]c(=O)c2C1` [43-1], for which the concentration for half-maximal inhibition (IC50) reads like this: under setting [1], below 50 nM; under setting [2], below 3 nM.

As for `O=C([C@H](O)c1cccc(C(F)(F)F)c1)N1CCCc2nc(C3(c4cncc(-c5cnsc5)c4)CC3)[nH]c(=O)c2C1` [43-2], the IC50 under setting [1] is below 50 nM.

Regarding `O=C(C(O)c1cccc(-c2cccc(OC(F)(F)F)c2)c1)N1CCc2nc(C3(c4ccccc4)CC3)[nH]c(=O)c2C1` (centres unmarked) [44-1, 6-(2-hydroxy-2-(3′-(trifluoromethoxy)-[1,1′-biphenyl]-3-yl)acetyl)-2-(1-phenylcyclopropyl)-5,6,7,8-tetrahydropyrido[4,3-d]pyrimidin-4(3H)-one], the concentration for half-maximal inhibition (IC50) is, setting by setting: under setting [1], below 50 nM; under setting [2], below 10 nM.

`O=C(C(O)c1cccc(-c2cccc(OC(F)(F)F)c2)c1F)N1CCc2nc(C3(c4ccccc4)CC3)[nH]c(=O)c2C1` (centres unmarked) [44-2] returned a half-maximal inhibitory concentration (IC50) under setting [1] below 50 nM and a half-maximal inhibitory concentration (IC50) under setting [2] below 10 nM.

The molecule `O=C(C(O)c1cccc(-c2cc(Cl)cc(C(F)(F)F)c2)c1)N1CCc2nc(C3(c4ccccc4)CC3)[nH]c(=O)c2C1` (centres unmarked) [44-3] had an IC50 under setting [1] below 50 nM and an IC50 under setting [2] below 10 nM.

For `O=C(C(O)c1cccc(-c2cccc(C(F)(F)F)n2)c1)N1CCc2nc(C3(c4ccccc4)CC3)[nH]c(=O)c2C1` (centres unmarked) [44-4], the half-inhibitory concentration (IC50) is below 50 nM under setting [1] and below 10 nM under setting [2].

Regarding `O=C(C(O)c1cccc(-c2ccc(Cl)c(C(F)(F)F)c2)c1)N1CCc2nc(C3(c4ccccc4)CC3)[nH]c(=O)c2C1` (centres unmarked) [44-5], the IC50 is below 50 nM under setting [1] and below 10 nM under setting [2].

Take `O=C(C(O)c1cccc(-c2cccc(C(F)(F)F)c2)c1)N1CCc2nc(C3(c4ccccc4)CC3)[nH]c(=O)c2C1` (centres unmarked) [44-6]: the 50% inhibitory concentration (IC50) is below 50 nM under setting [1] and below 10 nM under setting [2].

Regarding `CC(C)(C)c1cccc(-c2cccc(C(O)C(=O)N3CCc4nc(C5(c6ccccc6)CC5)[nH]c(=O)c4C3)c2)c1` (centres unmarked) [44-7], the IC50 was below 50 nM under setting [1] and below 10 nM under setting [2].

On to `O=C(C(O)c1cccc(-c2cc(C(F)(F)F)cc(C(F)(F)F)c2)c1)N1CCc2nc(C3(c4ccccc4)CC3)[nH]c(=O)c2C1` (centres unmarked) [44-8], for which the concentration for half-maximal inhibition (IC50) reads like this: under setting [1], below 50 nM; under setting [2], below 10 nM.

As to `O=C(C(O)c1cccc(-c2cc3ccccc3s2)c1)N1CCc2nc(C3(c4ccccc4)CC3)[nH]c(=O)c2C1` (centres unmarked) [44-9], the IC50 was below 50 nM under setting [1] and below 10 nM under setting [2].

`O=C(C(O)c1cccc(-c2cc(Cl)cc(Cl)c2)c1)N1CCc2nc(C3(c4ccccc4)CC3)[nH]c(=O)c2C1` (centres unmarked) [44-10]: the 50% inhibitory concentration (IC50) is below 50 nM under setting [1] and below 10 nM under setting [2].

With `O=C(C(O)c1cccc(-c2cc(F)cc(Cl)c2)c1)N1CCc2nc(C3(c4ccccc4)CC3)[nH]c(=O)c2C1` (centres unmarked) [44-11], the IC50 was below 50 nM under setting [1] and below 10 nM under setting [2].

As to `O=C(C(O)c1cccc(-c2cnc3ccccc3c2)c1)N1CCc2nc(C3(c4ccccc4)CC3)[nH]c(=O)c2C1` (centres unmarked) [44-12], the half-maximal inhibitory concentration (IC50) is below 50 nM under setting [1] and below 10 nM under setting [2].

`O=C(C(O)c1cccc(-c2cc(C(F)(F)F)ccc2Cl)c1)N1CCc2nc(C3(c4ccccc4)CC3)[nH]c(=O)c2C1` (centres unmarked) [44-13]: the IC50 was below 50 nM under setting [1] and below 10 nM under setting [2].

In the case of `O=C(C(O)c1cccc(-c2ccc(F)c(Cl)c2)c1)N1CCc2nc(C3(c4ccccc4)CC3)[nH]c(=O)c2C1` (centres unmarked) [44-14], the IC50 reads like this: under setting [1], below 50 nM; under setting [2], below 10 nM.

Take `O=C(C(O)c1cccc(-c2ccc(Cl)c(F)c2)c1)N1CCc2nc(C3(c4ccccc4)CC3)[nH]c(=O)c2C1` (centres unmarked) [44-15]: the IC50 is, setting by setting: under setting [1], below 50 nM; under setting [2], below 10 nM.

Consider `Cc1cc(Cl)cc(-c2cccc(C(O)C(=O)N3CCc4nc(C5(c6ccccc6)CC5)[nH]c(=O)c4C3)c2)c1` (centres unmarked) [44-16], for which the IC50 was below 50 nM under setting [1] and below 10 nM under setting [2].

As for `O=C(C(O)c1cccc(-c2ccnc(C(F)(F)F)c2)c1)N1CCc2nc(C3(c4ccccc4)CC3)[nH]c(=O)c2C1` (centres unmarked) [44-17], the half-inhibitory concentration (IC50) reads like this: under setting [1], below 50 nM; under setting [2], below 10 nM.

On to `O=C(C(O)c1cccc(-c2cccc(SC(F)(F)F)c2)c1)N1CCc2nc(C3(c4ccccc4)CC3)[nH]c(=O)c2C1` (centres unmarked) [44-18], for which the half-maximal inhibitory concentration (IC50) reads like this: under setting [1], below 50 nM; under setting [2], below 10 nM.

`O=C(C(O)c1cccc(-c2cncc(C(F)(F)F)c2)c1)N1CCc2nc(C3(c4ccccc4)CC3)[nH]c(=O)c2C1` (centres unmarked) [44-19] registered an IC50 under setting [1] below 50 nM.

With `O=C(C(O)c1cccc(-c2cccc(C3CC3)c2)c1)N1CCc2nc(C3(c4ccccc4)CC3)[nH]c(=O)c2C1` (centres unmarked) [44-20], the IC50 under setting [1] is below 50 nM.

As to `O=C(C(O)c1cccc(-c2cccc(Cl)c2)c1)N1CCc2nc(C3(c4ccccc4)CC3)[nH]c(=O)c2C1` (centres unmarked) [44-21], under setting [1], the concentration for half-maximal inhibition (IC50) was below 50 nM.

The molecule `O=C(C(O)c1cccc(-c2cccc(C(F)(F)F)c2)c1F)N1CCc2nc(C3(c4ccccc4)CC3)[nH]c(=O)c2C1` (centres unmarked) [44-22] came in with an IC50 under setting [1] below 50 nM.

The molecule `O=C(C(O)c1cccc(-c2ccnc(C(F)(F)F)c2)c1F)N1CCc2nc(C3(c4ccccc4)CC3)[nH]c(=O)c2C1` (centres unmarked) [44-23] gave an IC50 under setting [1] below 50 nM.

Under setting [1], `O=C(C(O)c1cccc(-c2ccc(OC(F)(F)F)cc2)c1)N1CCc2nc(C3(c4ccccc4)CC3)[nH]c(=O)c2C1` (centres unmarked) [44-24] yielded an IC50 below 50 nM.

In turn, `O=C(C(O)c1cccc(-c2ccc(C(F)(F)F)cc2)c1)N1CCc2nc(C3(c4ccccc4)CC3)[nH]c(=O)c2C1` (centres unmarked) [44-25] yielded an IC50 under setting [1] below 50 nM.

As for `Cc1ccc(-c2cccc(C(O)C(=O)N3CCc4nc(C5(c6ccccc6)CC5)[nH]c(=O)c4C3)c2)cc1Cl` (centres unmarked) [44-26], the IC50 under setting [1] is below 50 nM.

The molecule `O=C(C(O)c1cccc(-c2csc(Cl)c2)c1)N1CCc2nc(C3(c4ccccc4)CC3)[nH]c(=O)c2C1` (centres unmarked) [44-27] gave an IC50 under setting [1] below 50 nM.

`O=C(C(O)c1cccc(-c2cc(F)ccc2Cl)c1)N1CCc2nc(C3(c4ccccc4)CC3)[nH]c(=O)c2C1` (centres unmarked) [44-28] came in with an IC50 under setting [1] below 50 nM.

For `COCCOc1cccc(-c2cccc(C(O)C(=O)N3CCc4nc(C5(c6ccccc6)CC5)[nH]c(=O)c4C3)c2)c1` (centres unmarked) [44-29], the concentration for half-maximal inhibition (IC50) under setting [1] was below 50 nM.

As for `O=C(C(O)c1cccc(-c2ccc(Cl)s2)c1)N1CCc2nc(C3(c4ccccc4)CC3)[nH]c(=O)c2C1` (centres unmarked) [44-30], under setting [1], the 50% inhibitory concentration (IC50) is below 50 nM.

Under setting [1], `O=C(C(O)c1cccc(-c2ccc(C(F)F)cc2)c1)N1CCc2nc(C3(c4ccccc4)CC3)[nH]c(=O)c2C1` (centres unmarked) [44-31] returned a half-inhibitory concentration (IC50) below 50 nM.

On to `N#Cc1cccc(-c2cccc(C(O)C(=O)N3CCc4nc(C5(c6ccccc6)CC5)[nH]c(=O)c4C3)c2)c1` (centres unmarked) [44-32], for which the IC50 under setting [1] is below 50 nM.

For `O=C(C(O)c1cccc(-c2cccc(F)c2)c1F)N1CCc2nc(C3(c4ccccc4)CC3)[nH]c(=O)c2C1` (centres unmarked) [44-33], under setting [1], the IC50 was below 50 nM.

`Cc1ccc(-c2cccc(C(O)C(=O)N3CCc4nc(C5(c6ccccc6)CC5)[nH]c(=O)c4C3)c2)cc1F` (centres unmarked) [44-34] gave a concentration for half-maximal inhibition (IC50) under setting [1] below 50 nM.

`Cc1cc(F)cc(-c2cccc(C(O)C(=O)N3CCc4nc(C5(c6ccccc6)CC5)[nH]c(=O)c4C3)c2)c1` (centres unmarked) [44-35]: the IC50 under setting [1] is below 50 nM.

`O=C(C(O)c1cccc(-c2ccc(Cl)cc2)c1)N1CCc2nc(C3(c4ccccc4)CC3)[nH]c(=O)c2C1` (centres unmarked) [44-36] showed an IC50 under setting [1] below 50 nM.
